Measurements taken from article PMC7201278, “A structural study of TatD from Staphylococcus aureus elucidates a putative DNA-binding mode of a Mg^2+-dependent nuclease” (IUCrJ, 2020).

Key:
SaTatD (SAV0491) = molecular target: T1, SaTatD (SAV0491) (Staphylococcus aureus, UniProt W8U6D8); conditions: two phosphates per monomer in active site, coordinated to two Ni2+; SeMet-derived protein; 2.4 M sodium malonate pH 7.0, 20°C
T1 construct: gene yabD

[1] = molecular target: SaTatD (SAV0491), TatD-like DNase from Staphylococcus aureus (Mu50 strain) (Staphylococcus aureus (Mu50 strain)); test: SEC; analytical gel filtration, Superdex 200 (10/300 GL), buffer A (20 mM Tris, 150 mM NaCl pH 8.0), 0.5 ml/min, gel-filtration standards; SaTatD at 20.0 mg/ml (high concentration)

| stoichiometry N [1] | Molecule | X-ray crystal structure (SAD, 1.85 Å) (SaTatD (SAV0491)) |
| --- | --- | --- |
|  | O=P(O)(O)O [phosphate] | Polar interactions were also observed between the two phosphates and the surface residues of SaTatD |
| 2 | SaTatD (SAV0491), TatD-like DNase from Staphylococcus aureus (Mu50 strain) (enzyme) |  |
